In US20190127692A1, “Production Method For Hepatocyte Lineage Cells, Hepatocyte Lineage Cell Or Culture Product Obtained By The Production Method, And Hepatocyte Differentiation-Inducing Medium” (National University Corporation Chiba University, priority 2017, published 2019):

What was measured:
Type in all cases: cell-based, human
[1] = tested on: 201B7 cells; test: Optical microscope observation 2: state of culture cells (Example 5); conditions: 1 mM, 7 days culture
Procedure: 201B7 cells, HSM, calcium lactate, sodium lactate, and lactic acid were prepared in the same manner as in Example 2.
The 201B7 cells were seeded to a 6-well plate coated with Matrigel, and when 100% confluence had been reached, the medium was exchanged with 1 mM calcium lactate, 1 mM sodium lactate, or 1 mM lactic acid, followed by culture for 7 days.

[2] = tested on: 201B7 cells; test: Optical microscope observation 1: precipitates and cell survival after 7-day culture (Example 3)
Procedure: In the above-mentioned Examples, precipitates were formed in culture dishes in some cases. The formation of the precipitates inhibits contact between cells and medium to adversely affect long-term survival. Therefore, conditions under which the precipitates were not formed were investigated.
201B7 cells, ReproFF, HSM, and calcium lactate were prepared in the same manner as in Example 2.
5×10^4 201B7 cells were seeded to a 96-well plate coated with Matrigel. The next day, to HSM, calcium lactate was added at 3 μM, 10 μM, 30 μM, 100 μM, 300 μM, 1 mM, 3 mM, 10 mM, 30 mM, or 100 mM, followed by culture for 7 days.

[3] = tested on: AFP; test: Immunostaining with anti-AFP antibody (Example 6); conditions: HSM supplemented, 7 days culture
Procedure: 201B7 cells, HSM, ReproFF, and calcium lactate were prepared in the same manner as in Example 2.
The 201B7 cells were seeded to an 8-well chamber slide and cultured. After 100% confluence had been reached, 1 mM calcium lactate was added to HSM, followed by culture for 7 days. As a control, the cells were cultured in ReproFF for 7 days.
The cells were fixed with 4% paraformaldehyde, and washed with phosphate buffered saline (PBS). The cells were incubated at 4° C. for 30 minutes in 100% methanol having added thereto 0.3% hydrogen peroxide solution to inactivate intrinsic peroxidase. The cells were washed three times with PBS. The cells were incubated at 4° C. for 30 minutes in PBS supplemented with 2% fetal bovine serum (wash buffer).
A mouse anti-human alpha-fetoprotein (AFP) antibody (manufactured by Takara Bio Inc., product code: M225) was diluted 1,000-fold with the wash buffer and added, followed by incubation at 4° C. overnight. The resultant was washed three times with PBS. An anti-mouse IgG antibody (manufactured by GE Healthcare) labeled with Horse-radish peroxidase was diluted 1,000-fold with the wash buffer, followed by incubation at 4° C. for 3 hours. The resultant was washed three times with PBS. Color development was performed with 3,3-diaminobenzidine (DAKO, K3467), and nuclei were stained with hematoxylin, followed by mounting.

[4] = tested on: AFP; test: AFP expression by real-time quantitative PCR (Example 4); conditions: 1 mM in HSM, 7 days culture, control ReproFF
Procedure: (§1) 201B7 cells, ReproFF, HSM, calcium lactate, and sodium lactate were prepared in the same manner as in Example 2.
(§2) The 201B7 cells were seeded to a 6-well plate coated with Matrigel, and when 100% confluence had been reached, the medium was exchanged with 1 mM calcium lactate (Ca-lactate), 1 mM sodium lactate (Na-lactate), or 1 mM lactic acid (Lactate), followed by culture for 7 days. Control cells were cultured in ReproFF.
(§3) RNA was extracted and analyzed for the expression levels of AFP and albumin by real-time quantitative PCR.

[5] = tested on: albumin; test: Albumin expression by real-time quantitative PCR (Example 4); conditions: 1 mM in HSM, 7 days culture, control ReproFF
Procedure: as §1, §2, §3

[6] = in HSM, 7 days culture, optical microscope

Row | Compound | state of cells as compared to cells cultured with calcium lactate [1] | cell survival in HSM supplemented with lactic acid (general remark) ([2]; iPS cells, 7 days) | AFP expression (immunostaining) as compared to cells cultured in ReproFF [3] | optical microscope observation, FIG. 3A ([2]; 3 mM, 7 days culture) | expression of AFP as compared to the undifferentiated state [4] | expression of albumin as compared to the undifferentiated state [5] | cell survival ([2]; 1 mM in HSM, 7 days culture) | concentration at which precipitates were found [2, 6] | concentration at which precipitates were not found [2, 6]
1 | CC(O)C(=O)O (stereo not drawn) [lactic acid] | collapsing tendency | survived even after 7 days | upregulated | – | – | – | – | – | –
2 | CC(O)C(=O)[O-].[Na+] (stereo not drawn) [sodium lactate] | collapsing tendency | – | – | precipitates | upregulated | upregulated | – | – | –
3 | CC(O)C(=O)[O-].CC(O)C(=O)[O-].[Ca+2] (stereo not drawn) [calcium lactate] | – | – | – | – | upregulated | upregulated | survived | ≥ 3000 µM | ≤ 1000 µM
